From US11434242B2, “Dopamine-b-hydroxylase inhibitors” (BIAL-PORTELA & Cª, S.A., priority 2017, dated 2022)
Marks after values point to notes of the source that are not given here.

Molecular target: T1, Dopamine beta hydroxylase (Homo sapiens, UniProt P09172)
T1 construct: 125 μl of plasma; tissue Instituto Português do Sangue Transplantação; host or cells: human plasma from healthy donors
T1 sequence (P09172 40-617 limits assumed): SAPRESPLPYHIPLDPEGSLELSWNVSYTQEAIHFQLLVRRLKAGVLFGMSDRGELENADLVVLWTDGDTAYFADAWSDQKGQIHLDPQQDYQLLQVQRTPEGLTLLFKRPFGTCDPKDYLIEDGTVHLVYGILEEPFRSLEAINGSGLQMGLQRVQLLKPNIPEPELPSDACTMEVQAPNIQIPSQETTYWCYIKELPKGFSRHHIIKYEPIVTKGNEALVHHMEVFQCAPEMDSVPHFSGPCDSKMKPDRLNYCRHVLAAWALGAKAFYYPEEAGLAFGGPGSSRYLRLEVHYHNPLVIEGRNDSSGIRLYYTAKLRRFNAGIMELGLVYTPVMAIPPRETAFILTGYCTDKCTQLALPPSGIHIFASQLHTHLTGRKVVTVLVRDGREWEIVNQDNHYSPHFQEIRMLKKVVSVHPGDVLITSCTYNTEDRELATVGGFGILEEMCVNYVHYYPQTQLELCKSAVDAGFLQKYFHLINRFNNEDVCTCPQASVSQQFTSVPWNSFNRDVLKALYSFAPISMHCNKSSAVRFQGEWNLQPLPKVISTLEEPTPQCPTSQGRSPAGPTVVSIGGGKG
Experiment: Dopamine beta hydroxylase activity in human plasma
Format: biochemical
Conditions: for Plasma (1 μM), activity in % of control: inhibitor 1 μM
Method in brief: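 Healthy-donor human plasma pre-incubated 10 min at 37° C with compound at final 10, 100 or 1000 nM in pH 5.0 acetate buffer with ascorbate, fumarate, pargyline, N-ethylmaleimide, catalase and copper sulfate. Tyramine substrate then added for 45 min; octopamine formed was isolated by SCX cartridge, periodate-converted and read at 330 nm; activity given as % control.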

Plasma (0.01 μM), activity in % of control (inhibitor 0.01 μM)	Plasma (0.1 μM), activity in % of control (inhibitor 0.1 μM)	Plasma (1 μM), activity in % of control	Plasma (0.01 μM), activity in % of control, re-test (asterisked) (inhibitor 0.01 μM, re-tested under the same experimental conditions, asterisked data believed to be correct)	Plasma (0.1 μM), activity in % of control, re-test (asterisked) (inhibitor 0.1 μM, re-tested under the same experimental conditions, asterisked data believed to be correct)	SMILES
104.2 % of control	51.0 % of control	–	–	–	CC(C)NC(=O)Cc1c2n(c(=S)n1C)C[C@H](c1c(F)ccc(Cl)c1F)C2 [Example 236, (S)-2-(6-(3-chloro-2,6-difluorophenyl)-2-methyl-3-thioxo-2,5,6,7-tetrahydro-3H-pyrrolo[1,2-c]imidazol-1-yl)-N-isopropylacetamide]
67.9 % of control	16.5 % of control	–	–	–	Cn1c(CCC(=O)N2CC3C(C2)C3(C)C)c2n(c1=S)C[C@@H](c1c(F)c(F)cc(F)c1F)C2 (stereo partly drawn) [Example 319, 1-(6,6-dimethyl-3-azabicyclo[3.1.0]hexan-3-yl)-3-((R)-2-methyl-6-(2,3,5,6-tetrafluorophenyl)-3-thioxo-2,5,6,7-tetrahydro-3H-pyrrolo[1,2-c]imidazol-1-yl)propan-1-one]
–	29.0 % of control	2.4 % of control	–	–	O=C(Cc1[nH]c(=S)n2c1[C@@H]1C[C@]1(c1cc(Br)ccc1F)C2)N1CCN(c2ccccn2)CC1 [Example 147, 2-((5aS,6aR)-5a-(5-bromo-2-fluorophenyl)-3-thioxo-2,3,5,5a,6,6a-hexahydrocyclopropa[3,4]pyrrolo[1,2-c]imidazol-1-yl)-1-(4-(pyridin-2-yl)piperazin-1-yl)ethan-1-one]
75.9 % of control	29.4 % of control	–	–	–	Fc1ccc(Cl)cc1[C@]12C[C@H]1c1c(CCNc3cccnc3)[nH]c(=S)n1C2 [Example 197, (5aS,6aR)-5a-(5-chloro-2-fluorophenyl)-1-(2-(pyridin-3-ylamino)ethyl)-5,5a,6,6a-tetrahydrocyclopropa[3,4]pyrrolo[1,2-c]imidazole-3(2H)-thione]
104.5 % of control	43.4 % of control	–	–	–	CN(C(=O)Cc1[nH]c(=S)n2c1C[C@@H](c1c(F)ccc(Cl)c1F)C2)C1CCOC1 (stereo partly drawn) [Example 384, 2-((S)-6-(3-chloro-2,6-difluorophenyl)-3-thioxo-2,5,6,7-tetrahydro-3H-pyrrolo[1,2-c]imidazol-1-yl)-N-methyl-N-(tetrahydrofuran-3-yl)acetamide]
–	18.2 % of control	2.0 % of control	–	–	O=C(Cc1[nH]c(=S)n2c1[C@@H]1C[C@]1(c1cc(Br)ccc1F)C2)NCCc1ccccn1 [Example 145, 2-((5aS,6aR)-5a-(5-bromo-2-fluorophenyl)-3-thioxo-2,3,5,5a,6,6a-hexahydrocyclopropa[3,4]pyrrolo[1,2-c]imidazol-1-yl)-N-(2-(pyridin-2-yl)ethyl)acetamide]
84.8 % of control	51.7 % of control	–	67.6* % of control	15.0* % of control	Cn1c(CC(=O)N2CCCCC2)c2n(c1=S)C[C@@]1(c3cc(Br)ccc3F)C[C@@H]21 [Example 312, 2-((5aS,6aR)-5a-(5-bromo-2-fluorophenyl)-2-methyl-3-thioxo-2,3,5,5a,6,6a-hexahydrocyclopropa[3,4]pyrrolo[1,2-c]imidazol-1-yl)-1-(piperidin-1-yl)ethan-1-one]
83.5 % of control	66.3 % of control	–	–	–	Cn1c(CC(=O)N[C@H]2CCOC2)c2n(c1=S)C[C@H](c1cc(F)cc(F)c1)C2 [Example 426, 2-((S)-6-(3,5-difluorophenyl)-2-methyl-3-thioxo-2,5,6,7-tetrahydro-3H-pyrrolo[1,2-c]imidazol-1-yl)-N—((S)-tetrahydrofuran-3-yl)acetamide]
77.0 % of control	14.7 % of control	–	–	–	CN(C(=O)Cc1[nH]c(=S)n2c1C[C@@H](c1c(F)ccc(Br)c1F)C2)C1COC1 [Example 408, (S)-2-(6-(3-bromo-2,6-difluorophenyl)-3-thioxo-2,5,6,7-tetrahydro-3H-pyrrolo[1,2-c]imidazol-1-yl)-N-methyl-N-(oxetan-3-yl)acetamide]
94.4 % of control	33.2 % of control	–	–	–	Cn1c(CC(=O)NC2CCOCC2)c2n(c1=S)C[C@@H](c1c(F)cccc1F)C2 [Example 447, (R)-2-(6-(2,6-difluorophenyl)-2-methyl-3-thioxo-2,5,6,7-tetrahydro-3H-pyrrolo[1,2-c]imidazol-1-yl)-N-(tetrahydro-2H-pyran-4-yl)acetamide]
71.7 % of control	32.5 % of control	–	–	–	Cl.Cn1c(CCNC2CCCC2)c2n(c1=S)C[C@@]1(c3cc(Br)ccc3F)C[C@@H]21 [Example 330, (5aS,6aR)-5a-(5-bromo-2-fluorophenyl)-1-(2-(cyclopentylamino)ethyl)-2-methyl-5,5a,6,6a-tetrahydrocyclopropa[3,4]pyrrolo[1,2-c]imidazole-3(2H)-thione Hydrochloride]
42.4 % of control	3.1 % of control	–	–	–	Cn1c(CC(=O)NC2COC2)c2n(c1=S)C[C@H](c1c(F)ccc(Br)c1F)C2 [Example 413, (S)-2-(6-(3-bromo-2,6-difluorophenyl)-2-methyl-3-thioxo-2,5,6,7-tetrahydro-3H-pyrrolo[1,2-c]imidazol-1-yl)-N-(oxetan-3-yl)acetamide]
47.5 % of control	11.7 % of control	–	–	–	Cn1c(CC(=O)NC2COC2)c2n(c1=S)C[C@H](c1c(F)ccc(Cl)c1F)C2 [Example 333, (S)-2-(6-(3-chloro-2,6-difluorophenyl)-2-methyl-3-thioxo-2,5,6,7-tetrahydro-3H-pyrrolo[1,2-c]imidazol-1-yl)-N-(oxetan-3-yl)acetamide]
82.0 % of control	81.1 % of control	–	–	–	Cn1c(CCC(=O)N[C@@H]2CCCOC2)c2n(c1=S)C[C@@H](c1c(F)ccc(F)c1F)C2 [Example 288, 3-((R)-2-methyl-3-thioxo-6-(2,3,6-trifluorophenyl)-2,5,6,7-tetrahydro-3H-pyrrolo[1,2-c]imidazol-1-yl)-N—((R)-tetrahydro-2H-pyran-3-yl)propanamide]
68.1 % of control	23.2 % of control	–	–	–	Cn1c(CC(=O)N2CCOCC2)c2n(c1=S)C[C@@]1(c3cc(Cl)ccc3F)C[C@@H]21 [Example 422, 2-((5aS,6aR)-5a-(5-chloro-2-fluorophenyl)-2-methyl-3-thioxo-2,3,5,5a,6,6a-hexahydrocyclopropa[3,4]pyrrolo[1,2-c]imidazol-1-yl)-1-morpholinoethan-1-one]
100.2 % of control	40.2 % of control	–	–	–	CS(=O)(=O)C1CCN(C(=O)Cc2[nH]c(=S)n3c2C[C@H](c2c(F)ccc(Br)c2F)C3)CC1 [Example 126, (R)-2-(6-(3-bromo-2,6-difluorophenyl)-3-thioxo-2,5,6,7-tetrahydro-3H-pyrrolo[1,2-c]imidazol-1-yl)-1-(4-(methylsulfonyl)piperidin-1-yl)ethan-1-one]
87.6 % of control	27.0 % of control	–	–	–	Cn1c(CC(=O)Nc2nccs2)c2n(c1=S)C[C@@H](c1c(F)c(F)cc(F)c1F)C2 [Example 340, (R)-2-(2-methyl-6-(2,3,5,6-tetrafluorophenyl)-3-thioxo-2,5,6,7-tetrahydro-3H-pyrrolo[1,2-c]imidazol-1-yl)-N-(thiazol-2-yl)acetamide]
35.4 % of control	3.4 % of control	–	–	–	Cn1c(CC(=O)N[C@@H]2CCCOC2)c2n(c1=S)C[C@@]1(c3cc(Br)ccc3F)C[C@@H]21 [Example 277, 2-((5aS,6aR)-5a-(5-bromo-2-fluorophenyl)-2-methyl-3-thioxo-2,3,5,5a,6,6a-hexahydrocyclopropa[3,4]pyrrolo[1,2-c]imidazol-1-yl)-N—((R)-tetrahydro-2H-pyran-3-yl)acetamide]
84.2 % of control	62.0 % of control	–	–	–	Cn1c(CC(=O)N[C@@H]2CCCOC2)c2n(c1=S)C[C@@H](c1c(F)c(F)cc(F)c1F)C2 [Example 278, 2-((R)-2-methyl-6-(2,3,5,6-tetrafluorophenyl)-3-thioxo-2,5,6,7-tetrahydro-3H-pyrrolo[1,2-c]imidazol-1-yl)-N—((R)-tetrahydro-2H-pyran-3-yl)acetamide]
59.3 % of control	17.1 % of control	–	–	–	O=C(Cc1[nH]c(=S)n2c1C[C@@H](c1c(F)ccc(Cl)c1F)C2)Nc1ccccn1 [Example 169, (S)-2-(6-(3-chloro-2,6-difluorophenyl)-3-thioxo-2,5,6,7-tetrahydro-3H-pyrrolo[1,2-c]imidazol-1-yl)-N-(pyridin-2-yl)acetamide]
